Structures are written as SMILES.

As a reminder, the IC50 is the concentration needed to halve the response being measured.

Test [1] deals with T1, recombinant human ACC1 (rhACC1) (Homo sapiens, UniProt Q13085, DEL44-44).
T1 construct: recombinant baculovirus containing full length human ACC1 cDNA; made in house; host or cells: SF9 insect cells (baculovirus)
Briefly: recombinant hACC1 Transcreener assay (direct inhibition of ACC1 activity). The class given is biochemical. To be noted: Transcreener ADP detection FP assay, 50 μM ATP, 30 μM acetyl-CoA, 120 min at 25° C. Here is the method: For example direct inhibition of ACC activity, for the compound of Formula (1) was determined using preparations of recombinant human ACC1 (rhACC1) and recombinant human ACC2 (rhACC2). Representative sequences of the recombinant human ACC1 and ACC2 that can be used in the assay are provided in FIG. 1 (SEQ ID NO. 1) and FIG. 2 (SEQ. ID NO. 2), respectively. Preparation of rhACC1. Two liters of SF9 cells, infected with recombinant baculovirus containing full length human ACC1 cDNA, were suspended in ice-cold lysis buffer (25 mM Tris, pH 7.5; 150 mM NaCl; 10% glycerol; 5 mM imidazole (EMD Bioscience; Gibbstown, N.J.); 2 mM TCEP (BioVectra; Charlottetown, Canada); Benzonase nuclease (10000 U/100 g cell paste; Novagen; Madison, Wis.); EDTA-free protease inhibitor cocktail (1 tab/50 mL; Roche Diagnostics; Mannheim, Germany). Cells were lysed by 3 cycles of freeze-thaw and centrifuged at 40,000×g for 40 minutes (4° C.). Supernatant was directly loaded onto a HisTrap FF crude column (GE Healthcare; Piscataway, N.J.) and eluted with an imidazole gradient up to 0.5 M over 20 column volumes (CV). ACC1-containing fractions were pooled and diluted 1:5 with 25 mM Tris, pH 7.5, 2 mM TCEP, 10% glycerol and direct loaded onto a CaptoQ (GE Healthcare) column and eluted with an NaCl gradient up to 1 M over 20 CV's. Phosphate groups were removed from purified ACC1 by incubation with lambda phosphatase (100 U/10 μM target protein; New England Biolabs; Beverly, Mass.) for 14 hours at 4° C.; okadaic acid was added (1 μM final concentration; Roche Diagnostics) to inhibit the phosphatase. Purified ACC1 was exchanged into 25 mM Tris, pH 7.5, 2 mM TCEP, 10% glycerol, 0.5 M NaCl by 6 hour dialysis at 4° C. Aliquots were prepared and frozen at −80° C. […] The final conditions for the assay were 50 mM HEPES, pH 7.2, 10 mM MgCl2, 7.5 mM tripotassium citrate, 2 mM DTT, 0.1 mg/mL BSA, 30 μM acetyl-CoA, 50 μM ATP, and 10 mM KHCO3 Typically, a 10 μl reaction was run for 120 min at 25° C., and 10 μl of Transcreener stop and detect buffer was added and the combination incubated at room temp for an additional 1 hour. The data was acquired on a Envision Fluorescence reader (Perkinelmer) using a 620 excitation Cy5 FP general dual mirror, 620 excitation Cy5 FP filter, 688 emission (S) and a 688 (P) emission filter.

Test [2] has as its target T2, recombinant human ACC2 (rhACC2) (Homo sapiens, UniProt O00763, V2141I).
T2 construct: a full length Cytomax clone of ACC2 was purchased from Cambridge Bioscience Limited; made in house; host or cells: CHO cells (tetracycline-induced, pcDNA5 FRT TO-TOPO)
The test can be described thus: recombinant hACC2 Transcreener assay (direct inhibition of ACC2 activity). The class given is biochemical. To be noted: Transcreener ADP detection FP assay, 50 μM ATP, 30 μM acetyl-CoA, 50 min at 25° C. On the procedure:
For example direct inhibition of ACC activity, for the compound of Formula (1) was determined using preparations of recombinant human ACC1 (rhACC1) and recombinant human ACC2 (rhACC2). Representative sequences of the recombinant human ACC1 and ACC2 that can be used in the assay are provided in FIG. 1 (SEQ ID NO. 1) and FIG. 2 (SEQ. ID NO. 2), respectively.
[3] Preparation of rhACC2. Human ACC2 inhibition was measured using purified recombinant human ACC2 (hrACC2). Briefly, a full length Cytomax clone of ACC2 was purchased from Cambridge Bioscience Limited and was sequenced and subcloned into PcDNA5 FRT TO-TOPO (Invitrogen, Carlsbad, Calif.). The ACC2 was expressed in CHO cells by tetracycline induction and harvested in 5 liters of DMEM/F12 with glutamine, biotin, hygromycin and blasticidin with 1 μg/mL tetracycline (Invitrogen, Carlsbad, Calif.). The conditioned medium containing ACC2 was then applied to a Softlink Soft Release Avidin column (Promega, Madison, Wis.) and eluted with 5 mM biotin. 4 mgs of ACC2 were eluted at a concentration of 0.05 mg/mL (determined by A280) with an estimated purity of 95% ([…]). The purified ACC2 was dialyzed in 50 mM Tris, 200 mM NaCl, 4 mM DTT, 2 mM EDTA, and 5% glycerol. The pooled protein was frozen and stored at −80° C., with no loss of activity upon thawing. For measurement of ACC2 activity and assessment of ACC2 inhibition, test compounds were dissolved in DMSO and added to the rhACC2 enzyme as a 5× stock with a final DMSO concentration of 1%.
[4] Measurement of human ACC2 inhibition. hACC2 was assayed in a Costar #3676 (Costar, Cambridge, Mass.) 384-well plate using the Transcreener ADP detection FP assay kit (Bellbrook Labs, Madison, Wisconsin) using the manufacturer's recommended conditions for a 50 uM ATP reaction. The final conditions for the assay were 50 mM HEPES, pH 7.2, 5 mM MgCl2, 5 mM tripotassium citrate, 2 mM DTT, 0.1 mg/mL BSA, 30 μM acetyl-CoA, 50 μM ATP, and 8 mM KHCO3 Typically, a 10 μl reaction was run for 50 min at 25° C., and 10 μl of Transcreener stop and detect buffer was added and the combination incubated at room temp for an additional 1 hour. The data was acquired on an Envision Fluorescence reader (Perkinelmer) using a 620 excitation Cy5 FP general dual mirror, 620 excitation Cy5 FP filter, 688 emission (S) and a 688 (P) emission filter.

T2 sequence (O00763 whole entry V2141I): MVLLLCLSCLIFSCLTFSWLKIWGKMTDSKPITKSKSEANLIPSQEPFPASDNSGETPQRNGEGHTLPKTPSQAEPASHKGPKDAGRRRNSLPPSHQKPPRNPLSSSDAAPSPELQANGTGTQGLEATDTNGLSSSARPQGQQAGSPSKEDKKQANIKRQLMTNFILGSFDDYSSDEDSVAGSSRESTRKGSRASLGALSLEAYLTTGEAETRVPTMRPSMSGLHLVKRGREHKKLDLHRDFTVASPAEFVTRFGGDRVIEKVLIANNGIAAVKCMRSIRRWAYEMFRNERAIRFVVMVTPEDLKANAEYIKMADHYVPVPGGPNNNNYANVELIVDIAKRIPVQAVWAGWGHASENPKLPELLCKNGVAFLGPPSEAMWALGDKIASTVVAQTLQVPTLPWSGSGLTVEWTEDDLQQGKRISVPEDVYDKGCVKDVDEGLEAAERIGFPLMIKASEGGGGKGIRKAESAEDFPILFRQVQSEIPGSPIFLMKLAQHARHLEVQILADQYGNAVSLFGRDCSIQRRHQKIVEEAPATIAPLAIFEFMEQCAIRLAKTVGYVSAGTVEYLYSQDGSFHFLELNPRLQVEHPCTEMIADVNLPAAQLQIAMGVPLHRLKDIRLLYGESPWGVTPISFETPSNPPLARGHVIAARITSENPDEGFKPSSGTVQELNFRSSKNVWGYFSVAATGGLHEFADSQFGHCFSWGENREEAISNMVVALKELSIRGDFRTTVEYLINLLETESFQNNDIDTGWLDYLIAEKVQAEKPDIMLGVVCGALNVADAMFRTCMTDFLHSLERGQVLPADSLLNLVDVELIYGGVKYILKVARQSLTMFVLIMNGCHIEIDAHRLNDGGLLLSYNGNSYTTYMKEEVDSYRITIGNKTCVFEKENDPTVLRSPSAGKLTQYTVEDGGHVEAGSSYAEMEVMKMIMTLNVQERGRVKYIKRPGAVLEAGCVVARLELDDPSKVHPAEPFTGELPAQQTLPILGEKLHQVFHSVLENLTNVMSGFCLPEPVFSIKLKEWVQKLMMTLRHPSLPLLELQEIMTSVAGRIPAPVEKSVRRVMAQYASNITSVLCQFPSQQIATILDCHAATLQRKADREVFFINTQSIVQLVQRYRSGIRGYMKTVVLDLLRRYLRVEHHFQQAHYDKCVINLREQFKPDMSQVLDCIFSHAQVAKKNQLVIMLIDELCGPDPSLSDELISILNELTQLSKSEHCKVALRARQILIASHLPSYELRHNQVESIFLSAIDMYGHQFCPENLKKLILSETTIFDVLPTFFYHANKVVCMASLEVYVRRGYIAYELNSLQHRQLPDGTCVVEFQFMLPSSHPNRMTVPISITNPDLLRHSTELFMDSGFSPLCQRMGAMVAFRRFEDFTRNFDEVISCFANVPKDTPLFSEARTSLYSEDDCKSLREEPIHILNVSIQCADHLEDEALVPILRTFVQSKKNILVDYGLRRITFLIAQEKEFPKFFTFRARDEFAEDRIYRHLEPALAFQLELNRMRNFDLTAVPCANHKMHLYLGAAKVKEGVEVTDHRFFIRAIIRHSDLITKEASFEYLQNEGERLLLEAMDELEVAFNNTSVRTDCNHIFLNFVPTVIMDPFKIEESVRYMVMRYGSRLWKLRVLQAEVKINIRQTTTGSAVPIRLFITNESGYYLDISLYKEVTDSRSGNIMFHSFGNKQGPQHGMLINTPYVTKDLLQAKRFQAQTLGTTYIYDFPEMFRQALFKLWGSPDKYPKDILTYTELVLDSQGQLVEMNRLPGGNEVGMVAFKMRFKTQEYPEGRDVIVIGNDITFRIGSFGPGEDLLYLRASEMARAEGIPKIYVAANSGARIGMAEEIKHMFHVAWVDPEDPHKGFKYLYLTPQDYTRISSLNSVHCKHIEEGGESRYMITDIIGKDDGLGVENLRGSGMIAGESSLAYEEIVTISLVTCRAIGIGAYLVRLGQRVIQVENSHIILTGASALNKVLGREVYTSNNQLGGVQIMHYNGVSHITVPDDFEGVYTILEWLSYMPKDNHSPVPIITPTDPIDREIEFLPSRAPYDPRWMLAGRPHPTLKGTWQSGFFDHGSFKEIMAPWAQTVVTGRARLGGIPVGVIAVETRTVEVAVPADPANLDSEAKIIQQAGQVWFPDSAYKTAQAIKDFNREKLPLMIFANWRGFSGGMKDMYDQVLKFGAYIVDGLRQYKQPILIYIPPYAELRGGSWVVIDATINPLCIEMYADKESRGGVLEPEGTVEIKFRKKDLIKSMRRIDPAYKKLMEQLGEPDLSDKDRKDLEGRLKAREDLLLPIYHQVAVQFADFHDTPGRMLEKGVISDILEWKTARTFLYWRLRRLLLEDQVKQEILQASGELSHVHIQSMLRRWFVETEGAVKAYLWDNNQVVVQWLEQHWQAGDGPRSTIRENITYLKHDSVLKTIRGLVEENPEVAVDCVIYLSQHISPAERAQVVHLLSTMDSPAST

As for `CC(C)n1ncc2c1C(=O)CC1(CCN(C(=O)c3ccc4c(cnn4C)c3)CC1)C2` [Example 2A-11], the IC50 in test [1] turned out to be 261 nM; in test [2], 33.5 nM.
Take `CC(C)n1ncc2c1C(=O)CC1(CCN(C(=O)c3ccc4cc[nH]c(=O)c4c3)CC1)C2` [Example 2A-13]: the results for the IC50 in test [1] and in test [2] were 95.3 nM and 28 nM, respectively.
Consider `CC(C)n1ncc2c1C(=O)CC1(CCN(C(=O)c3ccc4c(=O)[nH]ccc4c3)CC1)C2` [Example 2A-14], for which the IC50 in test [1] amounted to 172 nM; in test [2], 27 nM.
On to `Cc1ncc(C(=O)N2CCC3(CC2)CC(=O)c2c(cnn2C(C)C)C3)c(N)n1` [Example 2A-15], for which the IC50 in test [1] was found to be 2030 nM; in test [2] it was 775 nM.
For the molecule `CC(C)n1ncc2c1C(=O)CC1(CCN(C(=O)c3cc(Cl)c4[nH]ncc4c3)CC1)C2` [Example 2A-16], the values for the IC50 in test [1] and in test [2] were 46.9 nM and 13.6 nM, respectively.
In the case of `Cc1cc(N(C)C)ncc1C(=O)N1CCC2(CC1)CC(=O)c1c(cnn1C(C)C)C2` [Example 2A-18], the IC50 in test [1] was 1010 nM; in test [2] it was 458 nM.
Turning to `CC(C)n1ncc2c1C(=O)CC1(CCN(C(=O)c3cnc4cc[nH]c4c3)CC1)C2` [Example 2A-19], the half-inhibitory concentration (IC50) stood at 57.4 nM in test [1] and 22.1 nM in test [2].
For `CC(C)n1ncc2c1C(=O)CC1(CCN(C(=O)c3cc4cccnc4[nH]3)CC1)C2` [Example 2A-20], the IC50 in test [1] was 121 nM; in test [2], 93 nM.
Regarding `Cc1nc2ccc(C(=O)N3CCC4(CC3)CC(=O)c3c(cnn3C(C)(C)C)C4)cc2[nH]1` [Example 2A-21], the IC50 in test [1] stood at 93.3 nM; in test [2], 32.7 nM.
On to `CC(C)(C)n1ncc2c1C(=O)CC1(CCN(C(=O)c3ccc4c(=O)[nH]ccc4c3)CC1)C2` [Example 2A-22], for which the values for the IC50 in test [1] and in test [2] were 1890 nM and 334 nM, respectively.
For the molecule `CC(C)(C)n1ncc2c1C(=O)CC1(CCN(C(=O)c3cnc4[nH]ccc4c3)CC1)C2` [Example 2A-23], the figures for the concentration for half-maximal inhibition (IC50) in test [1] and in test [2] were 32.3 nM and 23.3 nM, respectively.
Regarding `CC(C)(C)n1ncc2c1C(=O)CC1(CCN(C(=O)c3cnc4cc[nH]c4c3)CC1)C2` [Example 2A-24], the half-maximal inhibitory concentration (IC50) in test [1] is 30.7 nM; in test [2] it was 15.8 nM.
`CC(C)(C)n1ncc2c1C(=O)CC1(CCN(C(=O)c3cc(Cl)c4[nH]ncc4c3)CC1)C2` [Example 2A-25]: the IC50 amounted to 69.5 nM in test [1] and 22.7 nM in test [2].
Turning to `CC(C)n1ncc2c1C(=O)CC1(CCN(C(=O)c3ccc4c(c3)CC(=O)N4)CC1)C2` [Example 2A-27], the IC50 is 308 nM in test [1] and 91.8 nM in test [2].
Turning to `CC(C)(C)n1ncc2c1C(=O)CC1(CCN(C(=O)c3ccc4[nH]ncc4c3)CC1)C2` [Example 2A-28], the half-inhibitory concentration (IC50) in test [1] came to 47.8 nM; in test [2] it was 17 nM.
The corresponding values for `CC(C)(C)n1ncc2c1C(=O)CC1(CCN(C(=O)c3ccc4[nH]c(=O)[nH]c4c3)CC1)C2` [Example 2A-29] are 24.1 nM and 9.81 nM.
`CC(C)(C)n1ncc2c1C(=O)CC1(CCN(C(=O)c3ccc4c(c3)CC(=O)N4)CC1)C2` [Example 2A-30]: the IC50 is 170 nM in test [1] and 51 nM in test [2].
As to `CC(C)(C)n1ncc2c1C(=O)CC1(CCN(C(=O)c3ccc4cc[nH]c(=O)c4c3)CC1)C2` [Example 2A-31], the IC50 in test [1] is 43.5 nM; in test [2], 28.8 nM.
On to `CC(C)(C)n1ncc2c1C(=O)CC1(CCN(C(=O)c3ccc4[nH]cnc4c3)CC1)C2` [Example 2A-32], for which the IC50 in test [1] stood at 37 nM; in test [2], 28.6 nM.
Turning to `CC(C)n1ncc2c1C(=O)CC1(CCN(C(=O)c3ccc4[nH]c(=O)[nH]c4c3)CC1)C2` [Example 2A-33], the IC50 in test [1] turned out to be 53.7 nM; in test [2] it was 14.5 nM.
The corresponding values for `CC(C)(C)n1ncc2c1C(=O)CC1(CCN(C(=O)c3ccc4c(c3)NC(=O)CC4)CC1)C2` [Example 2A-34] are 72.4 nM and 32.1 nM.
Turning to `CC(C)n1ncc2c1C(=O)CC1(CCN(C(=O)c3cc(F)c4nc[nH]c4c3)CC1)C2` [Example 2A-36], the half-inhibitory concentration (IC50) amounted to 123 nM in test [1] and 29.6 nM in test [2].
On to `CC(C)n1ncc2c1C(=O)CC1(CCN(C(=O)c3cc(F)c4[nH]ncc4c3)CC1)C2` [Example 2A-37], for which the IC50 in test [1] worked out at 87.4 nM; in test [2], 34.5 nM.
Take `CC(C)n1ncc2c1C(=O)CC1(CCN(C(=O)c3cc4cnccc4nc3N)CC1)C2` [Example 2A-38]: the IC50 in test [1] turned out to be 297 nM; in test [2] it was 99.7 nM.
For the molecule `CC(C)(C)n1ncc2c1C(=O)CC1(CCN(C(=O)c3nc4ccccc4nc3N)CC1)C2` [Example 2A-39], the IC50 in test [1] was found to be 527 nM; in test [2], 122 nM.
`CC(C)n1ncc2c1C(=O)CC1(CCN(C(=O)c3cnc4ccnn4c3N)CC1)C2` [Example 2A-40]: the values for the 50% inhibitory concentration (IC50) in test [1] and in test [2] were 262 nM and 116 nM, respectively.
As for `CC(C)(C)n1ncc2c1C(=O)CC1(CCN(C(=O)c3cnc4[nH]ncc4c3)CC1)C2` [Example 2A-41], the values for the IC50 in test [1] and in test [2] were 176 nM and 90 nM, respectively.
The corresponding values for `Cc1nc2ccc(C(=O)N3CCC4(CC3)CC(=O)c3c(cnn3C3COC3)C4)cc2[nH]1` [Example 2A-42] are 1300 nM and 766 nM.
Take `CC(C)(C)n1ncc2c1C(=O)CC1(CCN(C(=O)c3cnc4ccnn4c3N)CC1)C2` [Example 2A-43]: the IC50 is 304 nM in test [1] and 149 nM in test [2].
As to `CC(C)(C)n1ncc2c1C(=O)CC1(CCN(C(=O)c3cc(F)c4[nH]ncc4c3)CC1)C2` [Example 2A-44], the IC50 came out at 106 nM in test [1] and 30.2 nM in test [2].
In the case of `Cn1c(=O)[nH]c2cc(C(=O)N3CCC4(CC3)CC(=O)c3c(cnn3C(C)(C)C)C4)ccc21` [Example 2A-45], the IC50 in test [1] is 73.7 nM; in test [2] it was 32.9 nM.
For `CC(C)n1ncc2c1C(=O)CC1(CCN(C(=O)c3ccc4c(c3)[nH]c(=O)n4C)CC1)C2` [Example 2A-46], the figures for the IC50 in test [1] and in test [2] were 167 nM and 29.5 nM, respectively.
For the molecule `CC(C)n1ncc2c1C(=O)CC1(CCN(C(=O)c3cc(Cl)c4nc[nH]c4c3)CC1)C2` [Example 2A-47], the IC50 in test [1] came to 48.2 nM; in test [2], 15.9 nM.

Source of the values: patent publication US9139587B2, “N1-pyrazolospiroketone acetyl-CoA carboxylase inhibitors” (Pfizer Inc., priority 2009, dated 2015).
